pIC50: −log10 of the molar value. Read-outs that look alike come from different tables or passages of the source.
Target: T1, human Cav3.2 channels (Homo sapiens, UniProt O95180)
T1 construct: expressed in transfected cells; host or cells: HEK293 cells (ATCC No. CRL-1573), plasmid pcDNA3.1(+)
Assay: Intracellular calcium concentration measurement (Fluo-4 AM) in stable cells expressing human Cav3.2 channels, buffer A / buffer B
Type: cell-based
From the text: Construction of Stable Cells Expressing Human Cav3.2 Channels
(1) A sequence produced by incorporating HindIII site and kozak sequence (GCCACC) into the 5′-terminal side of human Cav3.2 channel ORF (Open Reading Frame) gene and incorporating Kpnl site into the 3′-terminal side was incorporated into pcDNA3.1(+) (Thermo-Fisher Scientific, Inc., #V790-20), and the plasmid was transfected into HEK293 cells (ATCC No. CRL-1573) according to the protocol of FuGENE (registered trademark) HD Transfection Reagent (PROMEGA #E2311).
(2) Method for Measuring Intracellular Calcium Concentration
In the present measurement system, buffer A and buffer B having different potassium ion concentrations were used in order to evaluate the state-dependent Cav3.2 inhibitory action of a test compound.
Stable cell line expressing human Cav3.2 channels, which had been produced in (1), was seeded in a 96-well plate using DMEM medium including 10% FBS, and the cells were cultured for 48 hours under the conditions of 37° C. and 5% CO2. Subsequently, the medium was removed, and various wells that had been washed with a base buffer were treated with 80 μL of a fluorescent dye solution containing a mixed liquid of 22 μg of calcium fluorescence indicator Fluo-4 AM (Dojindo Laboratories Co., Ltd., #F311), 20 μL of DMSO, […] of 10% Pluronic F-127 (Thermo-Fisher Scientific, Inc., #P6866), and 4 mL of a base buffer. The cells were left to stand for 45 minutes at room temperature in the dark, and then the cells were washed with buffer A or buffer B. Solutions having various test compound concentrations and respectively containing buffer A or buffer B were added to the respective wells, the respective solutions containing DMSO at the same final concentration as that of the test compound as negative control, or containing the test compound dissolved in 100% DMSO at a final concentration of 0.1%. The cells were left to stand for another 15 minutes at room temperature in the dark, and the cells were analyzed using the following method using a microplate reader, EnVision (PerkinElmer, Inc.). First, the background fluorescence for each well was measured, subsequently an ionophore was added to the well, and the fluorescence of the baseline was measured. Subsequently, buffer A or buffer B containing added KCl at a concentration of 83.8 mM or 91.8 mM was added to each well, and an increase in fluorescence caused by a calcium influx generated by that stimulus was measured for 10 seconds. The percentage inhibition was calculated from the maximum fluorescence increment from the baseline, and the logarithmic value of the test compound concentration and the inhibitory activity were plotted to calculate the IC50 value. The analysis was carried out by measuring the fluorescence at 510 nm emitted when the cells were irradiated with exciting light at 485 nm.
Base buffer: 140 mM NaCl, 5 mM KCl, 1 mM MgCl2, 0.5 mM CaCl2, 10 mM Glucose, and 10 mM HEPES, pH 7.3
Buffer A: Equilibrium potential of potassium: −92 mV

[1] = Tables 2 to 6, buffer A, equilibrium potential of potassium −92 mV, read-out: Inhibitory action of buffer A (inactivated state)
[2] = Table 1, buffer A, equilibrium potential of potassium −92 mV, read-out: Inhibitory action of buffer A (inactivated state)
[3] = Table 1, buffer B, equilibrium potential of potassium −110 mV, read-out: Inhibitory action of buffer B (resting state or closed state)

T1 sequence (O95180 whole entry): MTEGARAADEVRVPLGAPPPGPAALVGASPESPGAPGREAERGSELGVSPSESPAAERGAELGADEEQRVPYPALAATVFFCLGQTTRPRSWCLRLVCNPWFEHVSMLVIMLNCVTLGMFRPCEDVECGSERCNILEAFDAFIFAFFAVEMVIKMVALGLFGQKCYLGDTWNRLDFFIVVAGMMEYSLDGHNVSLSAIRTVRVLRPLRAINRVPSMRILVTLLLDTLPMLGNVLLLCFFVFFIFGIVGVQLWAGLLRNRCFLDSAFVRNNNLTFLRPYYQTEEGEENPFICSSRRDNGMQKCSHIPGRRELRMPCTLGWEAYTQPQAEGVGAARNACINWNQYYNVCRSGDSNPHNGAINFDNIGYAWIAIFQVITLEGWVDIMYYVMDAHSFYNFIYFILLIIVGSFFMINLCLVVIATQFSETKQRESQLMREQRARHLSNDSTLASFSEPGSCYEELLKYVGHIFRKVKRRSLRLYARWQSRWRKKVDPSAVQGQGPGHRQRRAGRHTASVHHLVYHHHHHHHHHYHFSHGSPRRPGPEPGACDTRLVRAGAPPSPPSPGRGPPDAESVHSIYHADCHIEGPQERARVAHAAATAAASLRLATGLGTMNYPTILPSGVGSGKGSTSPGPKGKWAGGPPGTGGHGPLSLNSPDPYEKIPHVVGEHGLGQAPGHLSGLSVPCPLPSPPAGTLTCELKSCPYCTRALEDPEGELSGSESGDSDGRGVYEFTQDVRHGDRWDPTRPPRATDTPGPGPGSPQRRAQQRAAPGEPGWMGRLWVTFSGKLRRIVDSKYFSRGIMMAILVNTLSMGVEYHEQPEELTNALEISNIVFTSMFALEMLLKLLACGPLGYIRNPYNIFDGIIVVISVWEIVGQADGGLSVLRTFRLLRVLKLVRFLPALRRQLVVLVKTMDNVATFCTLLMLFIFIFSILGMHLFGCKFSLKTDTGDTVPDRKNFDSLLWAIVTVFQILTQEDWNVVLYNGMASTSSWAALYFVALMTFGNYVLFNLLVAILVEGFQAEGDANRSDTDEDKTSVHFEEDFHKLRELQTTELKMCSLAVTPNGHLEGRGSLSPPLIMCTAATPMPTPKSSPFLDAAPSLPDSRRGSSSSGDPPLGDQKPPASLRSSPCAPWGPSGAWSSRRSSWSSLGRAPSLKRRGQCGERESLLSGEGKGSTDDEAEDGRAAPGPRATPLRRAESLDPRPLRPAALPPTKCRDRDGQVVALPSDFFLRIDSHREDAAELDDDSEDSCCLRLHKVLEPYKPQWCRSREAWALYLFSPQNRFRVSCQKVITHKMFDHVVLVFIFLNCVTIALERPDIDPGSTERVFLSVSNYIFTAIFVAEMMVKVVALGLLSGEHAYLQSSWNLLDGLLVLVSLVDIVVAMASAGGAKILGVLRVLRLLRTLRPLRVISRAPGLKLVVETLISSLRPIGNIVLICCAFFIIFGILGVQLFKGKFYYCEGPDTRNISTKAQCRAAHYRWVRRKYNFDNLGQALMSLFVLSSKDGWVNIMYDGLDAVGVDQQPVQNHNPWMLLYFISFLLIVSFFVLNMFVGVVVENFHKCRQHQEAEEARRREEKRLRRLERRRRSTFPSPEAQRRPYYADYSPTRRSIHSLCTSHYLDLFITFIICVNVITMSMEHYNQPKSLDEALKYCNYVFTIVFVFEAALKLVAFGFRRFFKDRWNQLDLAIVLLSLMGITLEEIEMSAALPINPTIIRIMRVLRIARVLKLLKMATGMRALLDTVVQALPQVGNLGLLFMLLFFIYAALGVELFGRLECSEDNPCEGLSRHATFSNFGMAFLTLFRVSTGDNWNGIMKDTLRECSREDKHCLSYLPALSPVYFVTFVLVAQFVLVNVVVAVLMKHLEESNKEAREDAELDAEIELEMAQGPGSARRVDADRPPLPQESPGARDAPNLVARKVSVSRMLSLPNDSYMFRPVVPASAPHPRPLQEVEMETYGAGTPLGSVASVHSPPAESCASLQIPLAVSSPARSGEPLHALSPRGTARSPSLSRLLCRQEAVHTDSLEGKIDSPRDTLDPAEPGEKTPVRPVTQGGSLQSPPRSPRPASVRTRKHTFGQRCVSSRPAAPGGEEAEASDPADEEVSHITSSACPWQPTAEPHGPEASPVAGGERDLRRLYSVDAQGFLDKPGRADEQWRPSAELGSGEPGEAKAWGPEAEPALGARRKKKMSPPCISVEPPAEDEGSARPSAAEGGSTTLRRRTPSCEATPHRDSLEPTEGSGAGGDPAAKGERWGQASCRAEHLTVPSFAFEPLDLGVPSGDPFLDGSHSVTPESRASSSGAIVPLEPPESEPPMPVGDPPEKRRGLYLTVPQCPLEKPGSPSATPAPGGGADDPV

Structure (SMILES) | pIC50 [1] | pIC50 [2] | pIC50 [3]
C[C@@H](NC(=O)C1CC1c1nc2cnccc2[nH]1)c1ccc(OCC(F)(F)F)s1 (mixture of isomers) [Example 28, Trans-2-(1H-imidazo[4,5-c]pyridin-2-yl)-N—((R)-1-(5-(2,2,2-trifluoroethoxy)thiophen-2-yl)ethyl)cyclopropane-1-carboxamide] | < 5.00 |  | 
Cc1cc([C@@H](C)NC(=O)C2CC2c2nc3ccccc3[nH]2)sc1OCC(F)(F)F (single isomer, unassigned) [Example 1A] |  | 6.00 to 7.00 | < 5.00
Cc1cc([C@@H](C)NC(=O)C2CC2c2nc3ccccc3[nH]2)sc1OCC(F)(F)F (single isomer, unassigned) [Example 1B] |  | 5.00 to 6.00 | 
C[C@H](NC(=O)C1CC1c1nc2ccccc2[nH]1)c1ccc(OCC(F)(F)F)s1 (single isomer, unassigned) [Example 2A] |  | 5.00 to 6.00 | < 5.00
C[C@H](NC(=O)C1CC1c1nc2ccccc2[nH]1)c1ccc(OCC(F)(F)F)s1 (single isomer, unassigned) [Example 2B] |  | 5.00 to 6.00 | < 5.00
C[C@@H](NC(=O)C1CC1c1nc2ccccc2[nH]1)c1ccc(OCC(F)(F)F)s1 (single isomer, unassigned) [Example 3B] |  | 5.00 to 6.00 | 5.00 to 6.00
C[C@@H](NC(=O)C1CC1c1nc2ccccc2n1C)c1ccc(OCC(F)(F)F)s1 (single isomer, unassigned) [Example 4B] |  | 5.00 to 6.00 | < 5.00
C[C@@H](NC(=O)C1CC1c1nc2ccccc2[nH]1)c1ccc(C(F)(F)F)s1 (single isomer, unassigned) [Example 5B] |  | 5.00 to 6.00 | 5.00 to 6.00
C[C@@H](NC(=O)C1CC1c1nc2ccccc2[nH]1)c1ccc(Br)s1 (single isomer, unassigned) [Example 6A] |  | 6.00 to 7.00 | 5.00 to 6.00
C[C@@H](NC(=O)C1CC1c1nc2ccccc2[nH]1)c1ccc(Br)s1 (single isomer, unassigned) [Example 6B] |  | 5.00 to 6.00 | < 5.00
C[C@H](NC(=O)C1CC1c1nc2ccccc2[nH]1)c1cnc(OCC(F)(F)F)s1 (single isomer, unassigned) [Example 7A] |  | 5.00 to 6.00 | < 5.00
C[C@H](NC(=O)C1CC1c1nc2ccccc2[nH]1)c1cnc(OCC(F)(F)F)s1 (single isomer, unassigned) [Example 7B] |  | 5.00 to 6.00 | < 5.00
C[C@@H](NC(=O)C1CC1c1nc2ccccc2[nH]1)c1cnc(OCC(F)(F)F)s1 (single isomer, unassigned) [Example 8B] |  | < 5.00 | 
C[C@@H](NC(=O)C1CC1c1nc2ccccc2[nH]1)c1ncc(Br)s1 (single isomer, unassigned) [Example 11A] |  | 5.00 to 6.00 | < 5.00
C[C@@H](NC(=O)C1CC1c1nc2ccccc2[nH]1)c1ncc(Br)s1 (single isomer, unassigned) [Example 11B] |  | < 5.00 | 
C[C@@H](NC(=O)C1CC1c1cc(F)cc(F)c1)c1ccc(OCC(F)(F)F)s1 (single isomer, unassigned) [Example 19A] | < 5.00 |  | 
C[C@@H](NC(=O)C1CC1c1cc(F)cc(F)c1)c1ccc(OCC(F)(F)F)s1 (single isomer, unassigned) [Example 19B] | < 5.00 |  | 
C[C@@H](NC(=O)C1CC1c1ccc2cnn(C)c2c1)c1ccc(OCC(F)(F)F)s1 (single isomer, unassigned) [Example 22B] | 6.00 to 7.00 |  | 
C[C@@H](NC(=O)C1CC1c1ccccn1)c1ccc(OCC(F)(F)F)s1 (single isomer, unassigned) [Example 23A] | 5.00 to 6.00 |  | 
C[C@@H](NC(=O)C1CC1c1ccccn1)c1ccc(OCC(F)(F)F)s1 (single isomer, unassigned) [Example 23B] | < 5.00 |  | 
C[C@@H](NC(=O)C1CC1c1nc2ccccc2[nH]1)c1ccc(C(=O)O)s1 (single isomer, unassigned) [Example 27] | < 5.00 |  | 

Structure (SMILES) | pIC50 [1] | pIC50 [2] | pIC50 [3]
C[C@@H](NC(=O)C1CC1c1cn(C)c2ccccc12)c1ccc(OCC(F)(F)F)s1 (single isomer, unassigned) [Example 29A] | < 5.00 |  | 
C[C@@H](NC(=O)C1CC1c1cn(C)c2ccccc12)c1ccc(OCC(F)(F)F)s1 (single isomer, unassigned) [Example 29B] | < 5.00 |  | 
C[C@@H](NC(=O)C1CC1c1nc2ccccc2[nH]1)c1ccc(C(N)=O)s1 (single isomer, unassigned) [Example 30] | < 5.00 |  | 
C[C@@H](NC(=O)C1CC1c1nc(-c2ccccc2)c[nH]1)c1ccc(OCC(F)(F)F)s1 (single isomer, unassigned) [Example 31B] | 6.00 to 7.00 |  | 
C[C@@H](NC(=O)C1CC1c1ccc2ccccc2n1)c1ccc(OCC(F)(F)F)s1 (single isomer, unassigned) [Example 34B] | 6.00 to 7.00 |  | 
C[C@@H](NC(=O)C1CC1c1nc2cccnc2[nH]1)c1ccc(OCC(F)(F)F)s1 (single isomer, unassigned) [Example 35] | 5.00 to 6.00 |  | 
C[C@@H](NC(=O)C1CC1c1nccn1Cc1ccccc1)c1ccc(OCC(F)(F)F)s1 (single isomer, unassigned) [Example 38A] | < 5.00 |  | 
C[C@@H](NC(=O)C1CC1c1nccn1Cc1ccccc1)c1ccc(OCC(F)(F)F)s1 (single isomer, unassigned) [Example 38B] | < 5.00 |  | 
C[C@@H](NC(=O)C1CC1c1nc2ccccc2o1)c1ccc(OCC(F)(F)F)s1 (single isomer, unassigned) [Example 40A] | < 5.00 |  | 
C[C@@H](NC(=O)C1CC1c1nc2ccccc2o1)c1ccc(OCC(F)(F)F)s1 (single isomer, unassigned) [Example 40B] | < 5.00 |  | 
CC(C)[C@@H](NC(=O)C1CC1c1nc2ccccc2[nH]1)c1ccc(OCC(F)(F)F)s1 (single isomer, unassigned) [Example 44] | ≥ 7.00 |  | 
C[C@@H](NC(=O)C1CC1c1ccc2ccccc2n1)c1ccc(Br)s1 (single isomer, unassigned) [Example 45] | 6.00 to 7.00 |  | 
C[C@@H](NC(=O)C1CC1c1cn(C)c2ccccc12)c1cnc(OCC(F)(F)F)s1 (single isomer, unassigned) [Example 48] | ≥ 7.00 |  | 
C[C@@H](NC(=O)C1CC1c1nc2cc(Cl)ccc2[nH]1)c1ccc(OCC(F)(F)F)s1 (single isomer, unassigned) [Example 53A] | ≥ 7.00 |  | 
C[C@@H](NC(=O)C1CC1c1nc2cc(Cl)ccc2[nH]1)c1ccc(OCC(F)(F)F)s1 (single isomer, unassigned) [Example 53B] | 6.00 to 7.00 |  | 
CCn1c(C2CC2C(=O)N[C@H](C)c2cnc(OCC(F)(F)F)s2)nc2ccccc21 (single isomer, unassigned) [Example 57A] | 6.00 to 7.00 |  | 
CCn1c(C2CC2C(=O)N[C@H](C)c2cnc(OCC(F)(F)F)s2)nc2ccccc21 (single isomer, unassigned) [Example 57B] | 5.00 to 6.00 |  | 
C[C@@H](NC(=O)C1CC1c1nc2cc(Cl)ccc2[nH]1)c1cnc(OCC(F)(F)F)s1 (single isomer, unassigned) [Example 64B] | 5.00 to 6.00 |  | 
COc1ccc2[nH]c(C3CC3C(=O)N[C@H](C)c3ccc(OCC(F)(F)F)s3)nc2c1 (single isomer, unassigned) [Example 71A] | 6.00 to 7.00 |  | 
COc1ccc2[nH]c(C3CC3C(=O)N[C@H](C)c3ccc(OCC(F)(F)F)s3)nc2c1 (single isomer, unassigned) [Example 71B] | 6.00 to 7.00 |  | 

From patent publication US11420944B2, “Voltage-dependent t-type calcium channel blocker” (Nippon Chemiphar Co., Ltd., priority 2016, dated 2022)
